Test results as given in US20150165033A1, “COMPOSITION FOR NASAL APPLICATION” (BBU-VITA CORP., priority 2012, published 2015).

Assays:
[1] = system: catalepsy caused by a single intraperitoneal injection of haloperidol; test: Spontaneous motor activity in the test "Open Field", catalepsy caused by haloperidol; assay type: in vivo; conditions: sum of movements in Open Field; haloperidol 0.25 mg/kg i.p. alone; male rats
Procedure: The restoration of spontaneous motor activity in rats as the sum of the movements in the test “Open Field” in the experimental model of a catalepsy caused by a single intraperitoneal (i.p.) injection of haloperidol (0.25 mg/kg, “Ratiopharm,” Germany). Dopamine (0.125 mg/kg, Polfa S.A. (Poland) was administered nasally in 50 μl in the solution of the spray once in each nostril in combination with the oxygen anion radicals (SAR) and/or the active substances of the nitrogen oxide according to the present invention (Group IV, “Composition 1”). The experiments were performed on non-purebred male rats having a body mass of 250±37 g.

duration of sleep = test: Narcotic action of phenobarbital, duration of sleep; assay type: in vivo; conditions: phenobarbital control 150 mg/kg
Excerpt: The enhancement of the narcotic effect of the barbiturate phenobarbital in “Composition 3,” administered nasally.

Compound | Spontaneous Activity [1] | Duration of sleep (duration of sleep) [min]
O=C(CCCN1CCC(O)(c2ccc(Cl)cc2)CC1)c1ccc(F)cc1 [Haloperidol, haloperidol] | 3.6 ± 3.4 | –
CCC1(c2ccccc2)C(=O)NC(=O)NC1=O [Phenobarbital, phenobarbital] | – | 192 ± 29.9
